Experiments:
[1] = tested on: eggs of the two-spotted mite; assay: Fumigant toxicity, Method 1 (deposit in pie plate); type: in vivo; conditions: deposit approx. 160 μg per square cm, 4 days
Experimental: (§1) Two methods were used to evaluate fumigant properties:
Method 1: Fifty mg. of each compound were dissolved in 5 ml. of acetone and poured into a 20 cm. (bottom diameter) Pyrex No. 210 pie plate. The acetone was allowed to evaporate leaving a deposit of approximately 160 μg. per square cm. The plate was then placed in the bottom of a 50 pound metal lard container (about 30 cm. in diameter and 34 cm. high). Two excised bean plants, held in a 250 ml. Erlenmeyer flask containing 100 ml. of tap water and infested with eggs of the two-spotted mite, were placed in the center of the pie plate. The container was held in the insectary (temperature 80±5° F., 50±5% R. H.) for four days before mortality determinations were made.

[2] = tested on: egg of the two-spotted mite; assay: Mite Ovicide Test; type: in vivo, Tetranychus urticae (Koch); set-up: key to Mite Ova rating: 1: no mortality; 3: an approximately 50% mortality; 5: 100% mortality; conditions: spray on eggs, 4 days
Description: (§2) The test procedures were as follows:
The plants were allowed to dry thoroughly.
(§3) Compositions were rated on the basis of percent kill with a rating of 1 indicating no mortality; 3 signifying an approximately 50% mortality and 5 indicating 100% mortality at the indicated dosage.

[3] = tested on: Perennial rye grass, crabgrass, red root pigweed, mustard; assay: Preliminary Herbicide Seed Germination Test; conditions: each rated 1 (no injury) to 5 (no seedlings emerged)
[4] = tested on: adults and nymphal stages of the two-spotted mite; assay: Mite Foliage Spray Test; type: in vivo, Tetranychus urticae (Koch); set-up: key: 1: no mortality; 3: an approximately 50% mortality; 5: 100% mortality; conditions: 4 days
Description: as §2, §3

[5] = tested on: egg forms of the two-spotted mite; assay: Fumigant toxicity, Method 2 (treated plants near untreated infested plants); type: in vivo; conditions: 500 ppm dip, 4 days
Experimental: as §1
Method 2: Excised bean plants infested with egg forms of the two-spotted mite were dipped in an aqueous preparation (500 ppm) of the test compound. The treated plants were transferred to 250 ml. Erlenmeyer flasks containing 100 ml. of tap water. Four flasks holding treated plants were evenly spaced around a similar flask in which were placed untreated mite-infested plants so that the leaves of the treated foliage were in close proximity (1-3 inches) to the untreated plants. Four days later mortality determinations were made.

[6] = tested on: two-spotted mite; assay: Small scale field tests, mite control on Tendergreen bean plants; type: in vivo, Tetranychus urticae (Koch)
Experimental: Selected enol ester compositions were evaluated in small scale field tests to determine whether the excellent miticidal properties observed in greenhouse testing would be obtained under actual conditions of field use.
In Test I 500 ppm aqueous dispersions were prepared as described above. In tests II and III various dilutions of the test compounds ranging from 125 ppm to 1000 ppm were prepared and used. In each case the test dispersions were applied to a minimum of two replicate test plots measuring five feet in length and containing healthy young Tendergreen bean plants which had previously been infested with two-spotted mite (Tetranychus urticae (Koch)). Dispersions of the test compounds at each concentration level were applied to individual replicate plots using 1/2 gallon garden sprayers equipped with spray nozzles to apply approximately 250 ml. of test solution to each replicate. The effectiveness of the treatment was determined at intervals following application, by microscopic examination of five leaves selected at random from each replicate plot. The degree of effectiveness for each leaf was rated on a scale of from 1 to 5 with 1 indicating no control in reference to a standard sprayed with a mixture of solution less test compound and 5 indicating complete control. The results obtained from inspection of sample leaves were then averaged to give a numerical indication of the degree of control for each compound tested at the concentration applied.

[7] = tested on: Cotton; assay: Phytotoxicity, cotton; conditions: 2500 ppm, 10 days
Experimental: (§4) Experiments were also conducted to determine the phytotoxicity of representative enol ester compositions with respect to healthy fresh plants. […] The test plants were sprayed in accordance with the procedure described above for the Mite Foliage Spray Test so as to deliver approximately 100 milliliters of test solution to the leaves of each plant tested. The sprayed plants and controls were set aside for approximately 1 hour to allow the solutions to dry and were then placed in the greenhouse. After 10 days the plants were visually inspected to determine the extent of foliage injury. A rating of 1 indicates no perceptible injury; 5 indicates the plant was dead and ratings of 2, 3 and 4 indicate intermediate degrees of injury based upon the number and extent to which leaves were injured.

[8] = tested on: Tomato; assay: Phytotoxicity, tomato; conditions: 2500 ppm, 10 days
Experimental: as §4

[9] = tested on: Corn; assay: Phytotoxicity, corn; conditions: 2500 ppm, 10 days
Experimental: as §4

[10] = tested on: Bean; assay: Phytotoxicity, bean; conditions: 2500 ppm, 10 days
Experimental: as §4

[11] = rating/maximum 20: 100 ppm only, four species
[12] = Test I, 500 ppm, 4 days, scale 1 (no control) to 5 (complete control)
[13] = Test I, 500 ppm, 8 days, scale 1 to 5
[14] = rating/maximum 40: 100 and 1000 ppm, four species, 10-12 days
[15] = rating/maximum 15: 100 ppm only, crabgrass omitted
[16] = Test II, 250 ppm, 3 days, scale 1 to 5
[17] = Test II, 250 ppm, 7 days, scale 1 to 5
[18] = Test II, 500 ppm, 3 days, scale 1 to 5
[19] = Test II, 500 ppm, 7 days, scale 1 to 5

| Compound | Fumigant Toxicity Method 1 [1] | Mite Ova rating [2] | Mite Adult rating [4] | Fumigant Toxicity Method 2 [5] | Average mite control rating, 1st Reading [6, 12] | Average mite control rating, 2nd Reading [6, 13] | Herbicide (total preemergence rating) [3, 14] | Phytotoxicity Rating, Cotton [7] | Phytotoxicity Rating, Tomato [8] | Phytotoxicity Rating, Corn [9] | Phytotoxicity Rating, Bean [10] | also measured |
| --- | --- | --- | --- | --- | --- | --- | --- | --- | --- | --- | --- | --- |
| Cc1cc(C)c(C2=C(OC(=O)OC(C)C)c3ccccc3C2=O)c(C)c1 [2-(2',4',6'-Trimethylphenyl)-3-(Isopropoxycarbonyloxy)indone] | 5 (80-100% control) | 5 (100% mortality) | 5 (100% mortality) | 3 | – | – | – | – | – | – | – | Herbicide (total preemergence rating) [3, 11]: 18/20 |
| O=C(OC1=C(c2c(Cl)cccc2Cl)C(=O)c2ccccc21)c1cccc(Cl)c1 [3-(3-Chlorobenzoyloxy)-2-(2',6'-dichlorophenyl)indone] | – | 5 (100% mortality) | 5 (100% mortality) | – | 3.0 | 3.0 | 32/40 | – | – | – | – | – |
| COC(=O)CCC(=O)OC1=C(c2c(C)cc(C)cc2C)C(=O)c2ccccc21 [2-(2',4',6'-Trimethylphenyl)-3-(3-methoxycarbonylpropionyloxy)indone] | 1 | 5 (100% mortality) | 5 (100% mortality) | 1 | – | – | – | 1 | 1 | 1 | 1 | Herbicide (total preemergence rating) [3, 15]: 15/15 |
| Cc1cc(C)c(C2=C(OC(=O)C3CCCCC3)c3ccccc3C2=O)c(C)c1 [2-(2',4',6'-Trimethylphenyl)-3-(cyclohexanoyloxy)indone] | 1 | 5 (100% mortality) | 5 (100% mortality) | 1 | – | – | 31/40 | 2 | 2 | 1 | 1 | – |
| Cc1cc(C)c(C2=C(OC(=O)CC3C=CCC3)c3ccccc3C2=O)c(C)c1 (centres unmarked) [2-(2',4',6'-Trimethylphenyl)-3-(cyclopent-2-en-1-ylacetoxy)indone] | 1 | 5 (100% mortality) | 5 (100% mortality) | 1 | – | – | – | 2 | 1 | 1 | 1 | Herbicide (total preemergence rating) [3, 15]: 11/15 |
| CCCCC(CC)COC(=O)OC1=C(c2c(C)cc(C)cc2C)C(=O)c2ccccc21 (centres unmarked) [2-(2',4',6'-Trimethylphenyl)-3-(2-ethylhexyloxycarbonyloxy)indone] | 1 | 5 (100% mortality) | 5 (100% mortality) | 1 | – | – | – | 1 | 1 | 2 | 1 | Herbicide (total preemergence rating) [3, 11]: 15/20 |
| COCC(=O)OC1=C(c2c(C)cc(C)cc2C)C(=O)c2ccccc21 [2-(2',4',6'-Trimethylphenyl)-3-(methoxyacetoxy)indone] | 1 | 5 (100% mortality) | 5 (100% mortality) | 1 | – | – | – | 1 | 1 | 1 | 1 | Herbicide (total preemergence rating) [3, 15]: 15/15 |
| 2-(2',5'-Dimethylphenyl)-3-(neodecanoyloxy)indone | – | 3 (an approximately 50% mortality) | 1 | – | – | – | – | 1 | 1 | 1 | 1 | Herbicide (total preemergence rating) [3, 11]: 4/20 |
| O=C(OC1=C(c2c(Cl)cccc2Cl)C(=O)c2ccccc21)c1ccccc1Cl [3-(2-chlorobenzoyloxy)-2-(2',6'-dichlorophenyl)indone] | – | 5 (100% mortality) | 5 (100% mortality) | – | 3.0 | 2.5 | 30/40 | – | – | – | – | – |
| CC(=O)OC1=C(c2c(C)cc(C)cc2C)C(=O)c2ccccc21 [2-(2',4',6'-Trimethylphenyl)-3-(acetoxy)indone] | 5 (80-100% control) | 5 (100% mortality) | 5 (100% mortality) | 5 (80-100% control) | – | – | 39/40 | – | – | – | – | – |
| 2-(2'-Methylphenyl)-3-(neodecanoyloxy)indone | – | 1 | 1 | – | – | – | – | 1 | 1 | 1 | 1 | Herbicide (total preemergence rating) [3, 11]: 4/20 |
| Cc1cc(C)c(C2C(=O)c3ccccc3C2=O)c(C)c1 [Compound A, 2-(2',4',6'-trimethylphenyl)-1,3-indandione, reference compound] | – | – | – | – | 1.0 | 1.0 | – | – | – | – | – | Average mite control rating, 1st Reading [6, 16]: 1.0; Average mite control rating, 2nd Reading [6, 17]: 1.3; Average mite control rating, 1st Reading [6, 18]: 2.7; Average mite control rating, 2nd Reading [6, 19]: 1.7; Average mite control rating, 1st Reading ([6]; Test III, 250 ppm, 3 days, scale 1 to 5): 1.0; Average mite control rating, 2nd Reading ([6]; Test III, 250 ppm, 7 days, scale 1 to 5): 2.0; Average mite control rating, 1st Reading ([6]; Test III, 500 ppm, 3 days, scale 1 to 5): 1.3; Average mite control rating, 2nd Reading ([6]; Test III, 500 ppm, 7 days, scale 1 to 5): 1.7; Average mite control rating, 1st Reading ([6]; Test III, 1000 ppm, 3 days, scale 1 to 5): 3.3; Average mite control rating, 2nd Reading ([6]; Test III, 1000 ppm, 7 days, scale 1 to 5): 3.3; Average mite control rating, 3rd Reading ([6]; Test III, 1000 ppm, 21 days, scale 1 to 5): 2.3 |
| Cc1cc(C)c(C2=C(OC(=O)c3cccc(Cl)c3)c3ccccc3C2=O)c(C)c1 [3-(3-Chlorobenzoyloxy)-2-(2',4',6'-trimethylphenyl)indone] | – | 5 (100% mortality) | 5 (100% mortality) | – | 1.5 | 2.0 | 29/40 | – | – | – | – | – |
| Cc1cc(C)c(C2=C(OC(=O)c3ccccc3Cl)c3ccccc3C2=O)c(C)c1 [3-(2-Chlorobenzoyloxy)-2-(2',4',6'-trimethylphenyl)indone] | – | 5 (100% mortality) | 5 (100% mortality) | – | 2.5 | – | 32/40 | – | – | – | – | – |
| CC(C)(C)C(=O)OC1=C(c2c(Cl)cccc2Cl)C(=O)c2ccccc21 [2-(2',6'-Dichlorophenyl)-3-(pivaloyloxy)indone] | – | 5 (100% mortality) | 5 (100% mortality) | 3 | 3.5 | 4.0 | 30/40 | – | – | – | – | Average mite control rating, 1st Reading [6, 16]: 2.3; Average mite control rating, 2nd Reading [6, 17]: 3.7; Average mite control rating, 1st Reading [6, 18]: 3.0; Average mite control rating, 2nd Reading [6, 19]: 3.3; Average mite control rating, 1st Reading ([6]; Test II, 1000 ppm, 3 days, scale 1 to 5): 3.3; Average mite control rating, 2nd Reading ([6]; Test II, 1000 ppm, 7 days, scale 1 to 5): 4.7 |
